Test results taken from patent publication US9617267B2, “Compounds and methods for kinase modulation, and indications therefor” (Plexxikon Inc., priority 2009, dated 2017).
Where two headings read alike, the source gives them in different places.

Tests used:
B-Raf [1] = target: B-Raf (Homo sapiens (Human), UniProt P15056); assay: B-Raf kinase activity biochemical assay (AlphaScreen, biotin-MEK1 phosphorylation); conditions: B-Raf
In short: (§1)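 Biotin-MEK1 phosphorylation measured after 45 min kinase reaction at RT with 100 μM ATP final; compounds tested at 8 points from 0.1 mM DMSO stock.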

B-Raf [2] = assay: as above; conditions: for Biochemical activity ratio B/V600E: ratio of IC50 B-Raf / B-Raf V600E; for Biochemical activity ratio B/C: ratio of IC50 B-Raf / c-Raf-1
In short: as §1

B-Raf V600E = B-Raf V600E (Homo sapiens (Human), UniProt P15056, V600E); assay: B-Raf V600E kinase activity biochemical assay (AlphaScreen, biotin-MEK1 phosphorylation); conditions: for IC50: B-Raf V600E; for Biochemical activity ratio V600E/C: ratio of IC50 B-Raf V600E / c-Raf-1
B-Raf V600E, sequence (P15056 whole entry V600E): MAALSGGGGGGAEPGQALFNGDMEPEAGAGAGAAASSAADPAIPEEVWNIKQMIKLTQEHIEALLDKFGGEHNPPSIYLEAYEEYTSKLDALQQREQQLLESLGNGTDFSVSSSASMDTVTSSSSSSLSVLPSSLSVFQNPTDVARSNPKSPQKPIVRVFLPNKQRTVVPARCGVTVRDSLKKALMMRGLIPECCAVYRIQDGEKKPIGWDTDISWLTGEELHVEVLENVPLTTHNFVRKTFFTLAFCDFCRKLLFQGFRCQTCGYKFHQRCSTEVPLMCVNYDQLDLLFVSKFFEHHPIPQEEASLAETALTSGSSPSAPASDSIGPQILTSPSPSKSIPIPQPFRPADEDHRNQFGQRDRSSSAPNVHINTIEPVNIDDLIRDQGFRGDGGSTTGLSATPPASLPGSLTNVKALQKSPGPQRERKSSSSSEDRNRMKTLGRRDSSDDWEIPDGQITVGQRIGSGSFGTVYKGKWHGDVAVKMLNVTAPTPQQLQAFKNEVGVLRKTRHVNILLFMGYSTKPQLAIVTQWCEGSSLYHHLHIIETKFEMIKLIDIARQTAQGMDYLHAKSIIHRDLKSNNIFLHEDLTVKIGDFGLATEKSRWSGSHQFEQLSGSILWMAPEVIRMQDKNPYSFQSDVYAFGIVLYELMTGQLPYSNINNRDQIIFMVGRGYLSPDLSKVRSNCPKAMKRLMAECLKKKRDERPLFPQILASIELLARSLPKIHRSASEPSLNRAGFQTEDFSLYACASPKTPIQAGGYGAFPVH
In short: as §1

c-Raf-1 = c-Raf-1 (Homo sapiens, UniProt P04049); assay: c-Raf-1 kinase activity biochemical assay (AlphaScreen, biotin-MEK1 phosphorylation)
c-Raf-1, sequence (P04049 whole entry, looked up): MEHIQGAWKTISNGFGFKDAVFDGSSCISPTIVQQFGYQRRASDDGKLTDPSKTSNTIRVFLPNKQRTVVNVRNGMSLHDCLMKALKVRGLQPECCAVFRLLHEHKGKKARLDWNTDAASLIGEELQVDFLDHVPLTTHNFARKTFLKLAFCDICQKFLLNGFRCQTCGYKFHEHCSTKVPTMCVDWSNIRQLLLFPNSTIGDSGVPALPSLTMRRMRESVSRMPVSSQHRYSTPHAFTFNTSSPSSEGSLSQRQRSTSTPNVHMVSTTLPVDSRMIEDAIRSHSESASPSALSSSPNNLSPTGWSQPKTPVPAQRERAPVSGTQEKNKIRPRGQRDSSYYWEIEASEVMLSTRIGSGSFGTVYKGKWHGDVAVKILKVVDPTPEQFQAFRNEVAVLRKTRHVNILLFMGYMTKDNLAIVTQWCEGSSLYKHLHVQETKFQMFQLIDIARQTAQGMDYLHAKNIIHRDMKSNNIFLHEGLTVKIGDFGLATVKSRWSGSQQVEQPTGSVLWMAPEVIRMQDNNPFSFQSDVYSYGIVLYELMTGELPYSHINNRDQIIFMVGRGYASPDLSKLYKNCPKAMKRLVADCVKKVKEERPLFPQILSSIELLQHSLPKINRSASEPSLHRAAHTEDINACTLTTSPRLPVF
In short: as §1

[3] = Relative solubility by turbidity threshold concentration in aqueous buffers (pH 1.5, 4.5, 6.8, 7.4); assay type: physicochemical; conditions: for turbidity threshold (L, M, H) 1.4: pH 1.4 [sic] (method: SGF pH 1.5); for turbidity threshold (L, M, H) 4.5: pH 4.5 (SIF); for turbidity threshold (L, M, H) 6.8: pH 6.8 (SIF); for turbidity threshold (L, M, H) 7.4: pH 7.4 (HEPES)
In short: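 Solubility class (high >250 μM, moderate 31.3–250 μM, low <31.3 μM) comes from the concentration where absorbance reaches a 0.01 threshold, averaged across 490/535/650 nm. Samples were compound dilutions from DMSO stock, 1 μL into 99 μL buffer at pH 1.5, 4.5, 6.8 or 7.4.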

CYP1A2 = CYP1A2 (Homo sapiens (Human), UniProt P05177); assay: CYP enzyme inhibition, fluorescent substrate (CEC)
CYP1A2, sequence (P05177 whole entry): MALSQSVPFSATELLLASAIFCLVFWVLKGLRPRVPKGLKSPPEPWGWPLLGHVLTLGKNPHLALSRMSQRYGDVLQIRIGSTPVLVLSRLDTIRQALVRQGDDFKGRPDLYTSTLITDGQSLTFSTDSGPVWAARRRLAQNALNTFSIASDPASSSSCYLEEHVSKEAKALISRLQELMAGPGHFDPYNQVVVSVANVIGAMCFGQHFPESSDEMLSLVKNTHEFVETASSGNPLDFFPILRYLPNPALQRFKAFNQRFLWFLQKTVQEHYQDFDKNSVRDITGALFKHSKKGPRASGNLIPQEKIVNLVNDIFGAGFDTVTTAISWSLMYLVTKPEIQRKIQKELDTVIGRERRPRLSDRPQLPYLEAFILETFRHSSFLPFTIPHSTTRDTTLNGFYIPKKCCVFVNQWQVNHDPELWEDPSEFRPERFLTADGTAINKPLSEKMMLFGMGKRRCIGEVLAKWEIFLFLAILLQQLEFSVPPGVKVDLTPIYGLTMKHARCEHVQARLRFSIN
In short: (§2)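 Ten-point 1:1 compound dilutions in NADPH-regenerating cofactor mix, pre-incubated 10 min at 37 °C before enzyme/substrate addition: CYP1A2 0.5 pmol with 5 μM CEC, 15 min, 409 ex/460 em; CYP2D6 1.5 pmol with 1.5 μM AMMC, 30 min, 409 ex/530 em. IC50 from fluorescent product vs concentration.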

CYP2C19 = CYP2C19 (Homo sapiens (Human), UniProt P33261); assay: CYP enzyme inhibition, fluorescent substrate (CEC)
CYP2C19, sequence (P33261 whole entry): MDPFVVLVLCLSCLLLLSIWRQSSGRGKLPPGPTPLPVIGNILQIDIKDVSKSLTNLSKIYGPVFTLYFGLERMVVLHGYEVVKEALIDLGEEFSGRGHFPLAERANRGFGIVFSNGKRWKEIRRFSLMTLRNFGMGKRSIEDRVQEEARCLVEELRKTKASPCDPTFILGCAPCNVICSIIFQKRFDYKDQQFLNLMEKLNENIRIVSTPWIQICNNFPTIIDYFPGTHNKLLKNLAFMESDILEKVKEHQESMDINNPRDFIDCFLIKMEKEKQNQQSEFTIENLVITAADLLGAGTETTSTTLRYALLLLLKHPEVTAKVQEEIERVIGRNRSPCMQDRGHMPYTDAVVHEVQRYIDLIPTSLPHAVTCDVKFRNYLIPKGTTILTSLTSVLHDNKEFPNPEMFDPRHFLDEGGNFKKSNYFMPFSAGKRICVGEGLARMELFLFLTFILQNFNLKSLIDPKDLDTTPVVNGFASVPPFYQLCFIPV
In short: (§3)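 Human CYP activity was followed by the fluorescence of the metabolized product of a known substrate, which falls as metabolism is inhibited. Compounds from 100 mM DMSO stocks were serially diluted 1:1 over 10 points in co-factor mix and preincubated 10 min at 37 °C. IC50 was fitted from signal versus concentration.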

CYP2C9 = CYP2C9 (Homo sapiens (Human), UniProt P11712); assay: CYP enzyme inhibition, fluorescent substrate (MFC)
CYP2C9, sequence (P11712 whole entry): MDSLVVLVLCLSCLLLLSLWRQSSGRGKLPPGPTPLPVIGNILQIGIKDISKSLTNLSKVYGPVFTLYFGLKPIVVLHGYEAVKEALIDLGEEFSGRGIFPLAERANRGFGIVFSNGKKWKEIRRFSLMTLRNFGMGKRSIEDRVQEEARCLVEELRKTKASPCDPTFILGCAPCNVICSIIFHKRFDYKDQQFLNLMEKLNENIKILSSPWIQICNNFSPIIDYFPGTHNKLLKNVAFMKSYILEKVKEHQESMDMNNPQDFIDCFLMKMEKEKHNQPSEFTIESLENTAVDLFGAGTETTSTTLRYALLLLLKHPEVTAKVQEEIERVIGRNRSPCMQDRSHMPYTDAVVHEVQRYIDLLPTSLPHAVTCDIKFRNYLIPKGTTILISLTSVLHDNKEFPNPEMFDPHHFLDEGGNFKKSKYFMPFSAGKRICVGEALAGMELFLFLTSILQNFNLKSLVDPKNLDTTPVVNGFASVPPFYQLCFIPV
In short: as §3

CYP2D6 = CYP2D6 (Homo sapiens (Human), UniProt P10635); assay: CYP enzyme inhibition, fluorescent substrate (AMMC); assay type: in vitro ADME; conditions: read-out: Cyp IC50 2D6
CYP2D6, sequence (P10635 whole entry): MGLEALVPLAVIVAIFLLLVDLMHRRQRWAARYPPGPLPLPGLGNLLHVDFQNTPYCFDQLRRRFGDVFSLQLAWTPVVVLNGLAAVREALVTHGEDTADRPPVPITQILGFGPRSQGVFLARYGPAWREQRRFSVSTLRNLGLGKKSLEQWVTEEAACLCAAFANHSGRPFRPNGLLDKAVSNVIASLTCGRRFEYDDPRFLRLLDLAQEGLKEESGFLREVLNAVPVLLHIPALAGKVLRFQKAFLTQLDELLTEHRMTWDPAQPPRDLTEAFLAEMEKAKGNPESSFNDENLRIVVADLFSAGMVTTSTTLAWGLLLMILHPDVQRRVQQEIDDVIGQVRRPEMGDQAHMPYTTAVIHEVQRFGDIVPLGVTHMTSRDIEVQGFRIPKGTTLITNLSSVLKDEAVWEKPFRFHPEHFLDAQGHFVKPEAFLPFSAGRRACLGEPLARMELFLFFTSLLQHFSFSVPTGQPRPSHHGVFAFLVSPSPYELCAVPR
In short: as §2

CYP3A4(BFC) = CYP3A4(BFC) (Homo sapiens (Human), UniProt P08684); assay: CYP enzyme inhibition, fluorescent substrate BFC
CYP3A4(BFC), sequence (P08684 whole entry): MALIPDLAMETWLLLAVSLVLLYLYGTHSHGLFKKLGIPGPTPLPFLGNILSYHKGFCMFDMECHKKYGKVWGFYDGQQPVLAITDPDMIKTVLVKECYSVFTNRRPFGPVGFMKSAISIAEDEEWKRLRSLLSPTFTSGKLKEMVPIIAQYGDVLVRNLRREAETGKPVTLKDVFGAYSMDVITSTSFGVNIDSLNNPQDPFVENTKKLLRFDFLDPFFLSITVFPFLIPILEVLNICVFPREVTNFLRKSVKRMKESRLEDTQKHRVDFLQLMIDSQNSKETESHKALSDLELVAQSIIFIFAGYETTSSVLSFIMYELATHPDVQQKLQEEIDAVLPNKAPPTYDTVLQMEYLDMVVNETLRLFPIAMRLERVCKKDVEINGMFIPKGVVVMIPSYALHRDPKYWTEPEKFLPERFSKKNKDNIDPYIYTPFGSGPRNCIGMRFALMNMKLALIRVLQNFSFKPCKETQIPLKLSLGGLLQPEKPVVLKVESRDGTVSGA
In short: as §3

CYP3A4(BQ) = CYP3A4(BQ) (Homo sapiens (Human), UniProt P08684); assay: CYP enzyme inhibition, fluorescent substrate BQ
CYP3A4(BQ), sequence (P08684 whole entry): as above
Description: CYP (Cytochrome P450) enzymes are the major drug metabolizing enzymes present in the liver. The inhibition of CYP enzyme activity (IC50) for each of CYP1A2, CYP2C19, CYP2C9, CYP2D6, CYP3A4(BFC) and CYP3A4(BQ) is determined for compounds, where inhibition of metabolism of a known substrate leads to a decrease in the fluorescence of the metabolized product. The fluorescence of the product is monitored as a function of compound concentration.
Compounds are dissolved in dimethyl sulfoxide to a concentration of 100 mM. These are diluted 1 μL into 82 μL of acetonitrile. […] These are then serially diluted 1:1 (160 μL to 160 μL co-factor mix) for a total of 10 points. A 10 μL aliquot of this final mixture is dispensed into 384 well assay plates and incubated for 10 minutes at 37° C. […] Assay plates are incubated at 37° C. […] The signal versus compound concentration is used to determine the IC50. The enzymes and substrates for this assay are obtained from BD Biosciences.

[4] = read-out: Cyp IC50 2C19, CYP2C19, substrate CEC
[5] = read-out: Cyp IC50 2C9, CYP2C9, substrate MFC
[6] = read-out: Cyp IC50 3A4(BFC), CYP3A4, substrate BFC
[7] = read-out: Cyp IC50 3A4(BQ), CYP3A4, substrate BQ

B-Raf (Homo sapiens (Human), UniProt P15056), sequence (P15056 whole entry): as the sequence (P15056 whole entry V600E) above, with E600V counted along it

| Compound | IC50 (CYP1A2; human, 15 min) [µM] | IC50 (CYP2C19; [4]) [µM] | IC50 (CYP2C9; [5]) [µM] | IC50 (CYP2D6) [µM] | IC50 (CYP3A4(BFC); [6]) [µM] | IC50 (CYP3A4(BQ); [7]) [µM] | IC50 (B-Raf [1]) [µM] | Biochemical activity ratio B/V600E (B-Raf [2]) | Biochemical activity ratio B/C (B-Raf [2]) | IC50 (B-Raf V600E) [µM] | Biochemical activity ratio V600E/C (B-Raf V600E) | IC50 (c-Raf-1) [µM] | turbidity threshold (L, M, H) 1.4 [3] | turbidity threshold (L, M, H) 4.5 [3] | turbidity threshold (L, M, H) 6.8 [3] | turbidity threshold (L, M, H) 7.4 [3] | further results |
| --- | --- | --- | --- | --- | --- | --- | --- | --- | --- | --- | --- | --- | --- | --- | --- | --- | --- |
| CCCc1ccc(S(=O)(=O)Nc2ccc(F)c(C(=O)c3c[nH]c4ncnc(NC5COC5)c34)c2F)cc1 [P-1056, N-{2,4-Difluoro-3-[4-(oxetan-3-ylamino)-7H-pyrrolo[2,3-d]pyrimidine-5-carbonyl]-phenyl}-4-propyl-benzenesulfonamide] | > 10 | > 10 | > 10 | > 10 | > 10 | > 10 | < 0.1 | 0.1-10 | >10 | > 0.1 | >10 | < 0.1 | M (moderate solubility if the threshold concentration is 31.3 μM to 250 μM) | L (low solubility if the threshold concentration is <31.3 μM) | L (low solubility if the threshold concentration is <31.3 μM) | L (low solubility if the threshold concentration is <31.3 μM) |  |
| Cn1cc(Nc2ncnc3[nH]cc(C(=O)c4c(F)ccc(NS(=O)(=O)c5ccc(C(F)(F)F)cc5)c4F)c23)cn1 [P-1062, N-{2,4-Difluoro-3-[4-(1-methyl-1H-pyrazol-4-ylamino)-7H-pyrrolo[2,3-d]pyrimidine-5-carbonyl]-phenyl}-4-trifluoromethyl-benzenesulfonamide] | > 10 | > 10 | < 5 | > 10 |  |  | < 0.1 | 0.1-10 | >10 | < 0.1 | >10 | < 0.1 | L (low solubility if the threshold concentration is <31.3 μM) | L (low solubility if the threshold concentration is <31.3 μM) | L (low solubility if the threshold concentration is <31.3 μM) | L (low solubility if the threshold concentration is <31.3 μM) | IC50 (CYP3A4(BFC)): 5 to 10 µM; IC50 (CYP3A4(BQ)): 5 to 10 µM |
| COc1ncnc2[nH]cc(C(=O)c3c(F)ccc(NS(=O)(=O)c4ccc(C(C)C)cc4)c3F)c12 [P-1010, N-[2,4-Difluoro-3-(4-methoxy-7H-pyrrolo[2,3-d]pyrimidine-5-carbonyl)-phenyl]-4-isopropyl-benzenesulfonamide] |  |  |  | > 10 | > 10 | > 10 | > 0.1 | 0.1-10 | 0.1-10 | > 0.1 | >10 | > 0.1 | L (low solubility if the threshold concentration is <31.3 μM) | L (low solubility if the threshold concentration is <31.3 μM) | L (low solubility if the threshold concentration is <31.3 μM) | M (moderate solubility if the threshold concentration is 31.3 μM to 250 μM) | IC50 (CYP1A2; read-out: Cyp IC50 1A2, CYP1A2, substrate CEC): > 10 µM; IC50 (CYP2C19): 5 to 10 µM; IC50 (CYP2C9): 5 to 10 µM |
| CCCS(=O)(=O)Nc1ccc(F)c(C(=O)c2c[nH]c3ncnc(Nc4ccccc4)c23)c1F [P-1048, Propane-1-sulfonic acid [2,4-difluoro-3-(4-phenylamino-7H-pyrrolo[2,3-d]pyrimidine-5-carbonyl)-phenyl]-amide] | > 10 | > 10 | > 10 | > 10 | > 10 | > 10 |  |  |  | < 0.1 |  |  |  |  |  |  |  |
| CCCS(=O)(=O)Nc1ccc(F)c(C(=O)c2c[nH]c3ncnc(Nc4ccccn4)c23)c1F [P-1077, Propane-1-sulfonic acid {2,4-difluoro-3-[4-(pyridin-2-ylamino)-7H-pyrrolo[2,3-d]pyrimidine-5-carbonyl]-phenyl}-amide] | > 10 | > 10 | > 10 | > 10 | > 10 | > 10 |  |  |  |  |  |  | H (high solubility if the threshold concentration is >250 μm) | L (low solubility if the threshold concentration is <31.3 μM) | L (low solubility if the threshold concentration is <31.3 μM) | L (low solubility if the threshold concentration is <31.3 μM) |  |
| CCCS(=O)(=O)Nc1ccc(F)c(C(=O)c2c[nH]c3ncnc(Nc4cccnc4)c23)c1F [P-1078, Propane-1-sulfonic acid {2,4-difluoro-3-[4-(pyridin-3-ylamino)-7H-pyrrolo[2,3-d]pyrimidine-5-carbonyl]-phenyl}-amide] | > 10 | > 10 | < 5 | > 10 | > 10 |  |  |  |  |  |  |  | M (moderate solubility if the threshold concentration is 31.3 μM to 250 μM) | L (low solubility if the threshold concentration is <31.3 μM) | L (low solubility if the threshold concentration is <31.3 μM) | L (low solubility if the threshold concentration is <31.3 μM) | IC50 (CYP3A4(BQ)): 5 to 10 µM |

The next lines start with results.

| IC50 (CYP1A2; human, 15 min) [µM] | IC50 (CYP2C19; [4]) [µM] | IC50 (CYP2C9; [5]) [µM] | IC50 (CYP2D6) [µM] | IC50 (CYP3A4(BFC); [6]) [µM] | IC50 (CYP3A4(BQ); [7]) [µM] | Compound | IC50 (B-Raf [1]) [µM] | Biochemical activity ratio B/V600E (B-Raf [2]) | Biochemical activity ratio B/C (B-Raf [2]) | IC50 (B-Raf V600E) [µM] | Biochemical activity ratio V600E/C (B-Raf V600E) | IC50 (c-Raf-1) [µM] | turbidity threshold (L, M, H) 1.4 [3] | turbidity threshold (L, M, H) 4.5 [3] | turbidity threshold (L, M, H) 6.8 [3] | turbidity threshold (L, M, H) 7.4 [3] | further results |
| --- | --- | --- | --- | --- | --- | --- | --- | --- | --- | --- | --- | --- | --- | --- | --- | --- | --- |
| > 10 | > 10 | > 10 | > 10 | > 10 | > 10 | CCCS(=O)(=O)Nc1ccc(F)c(C(=O)c2c[nH]c3ncnc(NCC4CC4)c23)c1F [P-1079, Propane-1-sulfonic acid {3-[4-(cyclopropylmethyl-amino)-7H-pyrrolo[2,3-d]pyrimidine-5-carbonyl]-2,4-difluoro-phenyl}-amide] |  |  |  |  |  |  | M (moderate solubility if the threshold concentration is 31.3 μM to 250 μM) | L (low solubility if the threshold concentration is <31.3 μM) | L (low solubility if the threshold concentration is <31.3 μM) | L (low solubility if the threshold concentration is <31.3 μM) |  |
|  | > 10 | > 10 | > 10 | > 10 | > 10 | O=C(c1c(F)ccc(NS(=O)(=O)c2cc(F)ccc2F)c1F)c1c[nH]c2ncnc(C3CC3)c12 [P-1107, N-[3-(4-Cyclopropyl-7H-pyrrolo[2,3-d]pyrimidine-5-carbonyl)-2,4-difluoro-phenyl]-2,5-difluoro-benzenesulfonamide] |  |  |  |  |  |  | M (moderate solubility if the threshold concentration is 31.3 μM to 250 μM) | L (low solubility if the threshold concentration is <31.3 μM) | M (moderate solubility if the threshold concentration is 31.3 μM to 250 μM) | M (moderate solubility if the threshold concentration is 31.3 μM to 250 μM) | IC50 (CYP1A2): 5 to 10 µM |
| > 10 | > 10 | > 10 | > 10 | > 10 | > 10 | CCCS(=O)(=O)Nc1ccc(F)c(C(=O)c2c[nH]c3ncnc(NC4CCCC4)c23)c1F [P-1081, Propane-1-sulfonic acid [3-(4-cyclopentylamino-7H-pyrrolo[2,3-d]pyrimidine-5-carbonyl)-2,4-difluoro-phenyl]-amide] |  |  |  |  |  |  | H (high solubility if the threshold concentration is >250 μm) | L (low solubility if the threshold concentration is <31.3 μM) | L (low solubility if the threshold concentration is <31.3 μM) | L (low solubility if the threshold concentration is <31.3 μM) |  |
